From patent US20250009914A1, “METHOD FOR SYNTHESIZING HYALURONIC ACID NANOPARTICLES, AND HYALURONIC ACID NANOPARTICLES PREPARED BY METHOD” (Kyungpook National University Industry-Academic Cooperation …, priority 2019, published 2025)

Columns and labels:
[1] = test system: HDF-neo, Human primary dermal fibroblast-neonatal; assay: Fibroblast proliferation, WST-8 assay (Ez-cytox); format: cell-based; settings: 3 day, serum free condition, FIG. 26
Procedure: Next, the fibroblast proliferation effect was evaluated according to a conventional known method.
Evaluation method: WST-8 assay (Ez-cytox) and Procollagen ELISA (Takara #MK101)

[2] = test system: B16F10 mouse melanoma cell line; assay: Melanin contents assay; format: cell-based; settings: B16F10, 48 hours; substance left 24 hours at 50° C. compared with −20° C., FIG. 23
Procedure: Whitening efficacy evaluation was measured by melanin contents assay and cellular tyrosinase activity assay after treating each experimental substance to a B16F10 mouse melanoma cell line and incubating the each experimental substance for 48 hours. As a control, ascorbic acid, ascorbic acid-2-glucoside (AA2G) and HAI (Oligo-HA) used in Example 2 were used. The substances used in the experiment were all left for 24 hours at −20° C. or 50° C. and then used in the experiment.

[3] = Thermal stability evaluation by HPLC; format: physicochemical; settings: aqueous solution 100 uM, 50° C. for 48 hours
cellular tyrosinase = molecular target: T1, cellular tyrosinase (Mus musculus, UniProt P11344); assay: Cellular tyrosinase activity assay; format: cell-based; settings: B16F10, 48 hours; substance left 24 hours at 50° C. compared with −20° C., FIG. 23
T1 construct: Cell line: B16F10 mouse melanoma (Passage 10), 6 well plate; endogenous in cells; host or cells: B16F10 mouse melanoma cells
T1 sequence (P11344 19-533): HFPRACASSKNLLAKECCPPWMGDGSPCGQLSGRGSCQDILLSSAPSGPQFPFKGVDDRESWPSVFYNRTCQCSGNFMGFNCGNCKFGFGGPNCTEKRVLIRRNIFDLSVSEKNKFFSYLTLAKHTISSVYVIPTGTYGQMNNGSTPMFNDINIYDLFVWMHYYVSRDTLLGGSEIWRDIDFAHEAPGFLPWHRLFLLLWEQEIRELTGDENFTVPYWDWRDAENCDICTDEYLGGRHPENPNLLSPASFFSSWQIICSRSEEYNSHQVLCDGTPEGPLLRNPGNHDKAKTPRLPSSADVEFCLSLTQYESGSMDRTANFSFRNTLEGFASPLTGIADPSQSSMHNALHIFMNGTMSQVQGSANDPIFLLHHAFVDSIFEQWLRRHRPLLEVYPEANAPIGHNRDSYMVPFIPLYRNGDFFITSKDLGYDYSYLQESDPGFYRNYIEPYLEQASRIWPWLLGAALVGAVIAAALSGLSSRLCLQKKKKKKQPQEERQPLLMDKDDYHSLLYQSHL
Procedure: Cell line: B16F10 mouse melanoma (Passage 10), 6 well plate, 4×10^5 cells/well
Evaluation method: Cellular tyrosinase activity assay
Experimental substance treatment time: 48 hours
Experimental substance treatment concentration: See FIG. 25

Structure (SMILES): O=C1O[C@H]([C@@H](O)CO)C(O)=C1O[C@H]1O[C@H](CO)[C@@H](O)[C@H](O)[C@H]1O [AA2G, ascorbic acid-2-glucoside]
- fibroblast proliferation promoting efficacy [1]: almost not shown

Structure (SMILES): CCCCCCCCCCCCCCCC(=O)OCC(O)C1OC(=O)C(OP(=O)(O)O)=C1O (stereo not drawn) [APPS]
- fibroblast proliferation promoting efficacy [1]: almost not shown

Structure (SMILES): O=C1O[C@H]([C@@H](O)CO)C(O)=C1O [ascorbic acid]
- melanin production (whitening efficacy) [2]: whitening efficacy disappeared
- oxidation over time [3]: not oxidized over time
- fibroblast proliferation promoting efficacy [1]: almost not shown
- tyrosinase activity (whitening efficacy) (cellular tyrosinase): whitening efficacy disappeared
